Entries after “also recorded” stand apart in the source; their conditions may differ.
Test system: MEC-1 cells
Test: ADCC cytotoxicity (target cell killing) of MEC-1 cells with NK cells, MOR00208 and Idelalisib alone and in combination
Type: cell-based, human
Procedure: The cytotoxicity of MOR00208 and Idelalisib alone and in combination were tested in the MEC-1 cell line.
Idelalisib is a phosphoinositide 3-kinase inhibitor; more specifically, it blocks P110δ, the delta isoform of the enzyme phosphoinositide 3-kinase. […] MOR00208 targets CD19 and mediates target cell killing via ADCC.
The following were used as controls: a) MEC-1 cells+RefmAb33+DMSO+NK cells, b) MEC-1 cells+DMSO+NK cells, c) MEC-1 cells+DMSO.
Target cell killing was measured using the following parameters: Idelalisib at concentrations of 0.3, 1, 3 and 10 μM; MOR00208 at concentrations of 1.5, 0.015 and 0.0015 μg/ml and the combination of MOR00208 and Idelalisib at the same concentrations.
In the Idelalisib group, […] in the MOR00208+Idelalisib combination group, target cells were pre-treated with Idelalisib for 7 days prior to the ADCC assay measurements. The target cells were counted and stained using 10 μM CFSE end concentration. For DMSO treated target cells, an effector:target (E:T) ratio of 2:1 is chosen, corresponding to a cell density of 5×10^5/ml. The proliferative effect on target cells caused by Idelalisib treatment was included by adjusting the E:T ratio in inhibitor treated cells. The NK cells are counted and adjusted to 1×10^6/ml. The target cell killing assays were performed as follows: using 96 well plates, 100 μl of target cell suspension was added per well, followed by 100 μl cell suspension of NK cells to each well resulting in an E:T ratio of 2:1. The antibodies were diluted in a range of 10-0.00001 nM (corresponding to 1.5-0.0000015 μg/ml) in medium. Cells were centrifuged and target:effector cell-pellets were re-suspended in 100 μl antibody-containing medium or the according control solution. The assay was incubated for 4 h in CO2-incubator at 37° C. After 10 min incubation on ice, 50 μl DAPI solution was added to each well (final concentration 1 μg/ml) and incubated on ice for 10 min. The cell killing measurements were performed with FACS-Verse. Dead target cells were DAPI positive.
In total, six experiments were performed in order to determine the mediation of ADCC on MEC-1 cells by the combination of MOR00208 and Idelalisib. […] The autoreactivity of the NK cells prevented a proper analysis in those two experiments.
The % dead cells (raw data) from Tables 1-16 was analysed in the following way:
[formula] [formula] [formula] where A is the treatment with MOR00208 alone; B is the treatment with Idelalisib alone; C is response to the control DMSO+RefMab33; AB is the combination of treatments A and B.
In order to confirm the results of synergy as calculated using Clarke et al. above, the Combination Index (CI) method was applied to the % dead cells (raw data) of Tables 1-16. For CI calculations, we used 0.3, 1, 3 and 10 μM Idelalisib and three MOR208 concentrations (1.5, 0.015 and 0.0015 μg/ml).

[1] = Experiment 1, Idelalisib 0.3 μM, MOR00208 0.01 nM (0.0015 μg/ml)
[2] = Experiment 1, Idelalisib 0.3 μM, MOR00208 0.1 nM (0.015 μg/ml)
[3] = Experiment 1, Idelalisib 0.3 μM, MOR00208 10 nM (1.5 μg/ml)
[4] = Experiment 1, Idelalisib 1 μM, MOR00208 0.01 nM (0.0015 μg/ml)
[5] = Experiment 1, Idelalisib 1 μM, MOR00208 0.1 nM (0.015 μg/ml)
[6] = Experiment 1, Idelalisib 1 μM, MOR00208 10 nM (1.5 μg/ml)
[7] = Experiment 1, Idelalisib 3 μM, MOR00208 0.01 nM (0.0015 μg/ml)
[8] = Experiment 1, Idelalisib 3 μM, MOR00208 0.1 nM (0.015 μg/ml)
[9] = Experiment 1, Idelalisib 3 μM, MOR00208 10 nM (1.5 μg/ml)
[10] = Experiment 1, Idelalisib 10 μM, MOR00208 0.01 nM (0.0015 μg/ml)
[11] = Experiment 1, Idelalisib 10 μM, MOR00208 0.1 nM (0.015 μg/ml)
[12] = Experiment 1, Idelalisib 10 μM, MOR00208 10 nM (1.5 μg/ml)
[13] = Experiment 2, Idelalisib 0.3 μM, MOR00208 0.01 nM (0.0015 μg/ml)
[14] = Experiment 2, Idelalisib 0.3 μM, MOR00208 0.1 nM (0.015 μg/ml)
[15] = Experiment 2, Idelalisib 0.3 μM, MOR00208 10 nM (1.5 μg/ml)
[16] = Experiment 2, Idelalisib 1 μM, MOR00208 0.01 nM (0.0015 μg/ml)
[17] = Experiment 2, Idelalisib 1 μM, MOR00208 01 nM (0.015 μg/ml)
[18] = Experiment 2, Idelalisib 1 μM, MOR00208 10 nM (1.5 μg/ml)
[19] = Experiment 2, Idelalisib 3 μM, MOR00208 0.01 nM (0.0015 μg/ml)
[20] = Experiment 2, Idelalisib 3 μM, MOR00208 0.1 nM (0.015 μg/ml)
[21] = Experiment 2, Idelalisib 3 μM, MOR00208 10 nM (1.5 μg/ml)
[22] = Experiment 2, Idelalisib 10 μM, MOR00208 0.01 nM (0.0015 μg/ml)
[23] = Experiment 2, Idelalisib 10 μM, MOR00208 0.1 nM (0.015 μg/ml)
[24] = Experiment 2, Idelalisib 10 μM, MOR00208 10 nM (1.5 μg/ml)
[25] = Experiment 3, Idelalisib 0.3 μM, MOR00208 0.01 nM (0.0015 μg/ml)
[26] = Experiment 3, Idelalisib 0.3 μM, MOR00208 0.1 nM (0.015 μg/ml)
[27] = Experiment 3, Idelalisib 0.3 μM, MOR00208 10 nM (1.5 μg/ml)
[28] = Experiment 3, Idelalisib 1 μM, MOR00208 0.01 nM (0.0015 μg/ml)
[29] = Experiment 3, Idelalisib 1 μM, MOR00208 0.1 nM (0.015 μg/ml)
[30] = Experiment 3, Idelalisib 1 μM, MOR00208 10 nM (1.5 μg/ml)
[31] = Experiment 3, Idelalisib 3 μM, MOR00208 0.01 nM (0.0015 μg/ml)
[32] = Experiment 3, Idelalisib 3 μM, MOR00208 0.1 nM (0.015 μg/ml)
[33] = Experiment 3, Idelalisib 3 μM, MOR00208 10 nM (1.5 μg/ml)
[34] = Experiment 3, Idelalisib 10 μM, MOR00208 0.01 nM (0.0015 μg/ml)
[35] = Experiment 3, Idelalisib 10 μM, MOR00208 0.1 nM (0.015 μg/ml)
[36] = Experiment 3, Idelalisib 10 μM, MOR00208 10 nM (1.5 μg/ml)
[37] = Experiment 4, Idelalisib 0.3 μM, MOR00208 0.01 nM (0.0015 μg/ml)
[38] = Experiment 4, Idelalisib 0.3 μM, MOR00208 0.1 nM (0.015 μg/ml)
[39] = Experiment 4, Idelalisib 0.3 μM, MOR00208 10 nM (1.5 μg/ml)
[40] = Experiment 4, Idelalisib 1 μM, MOR00208 0.01 nM (0.0015 μg/ml)
[41] = Experiment 4, Idelalisib 1 μM, MOR00208 0.1 nM (0.015 μg/ml)
[42] = Experiment 4, Idelalisib 1 μM, MOR00208 10 nM (1.5 μg/ml)
[43] = Experiment 4, Idelalisib 3 μM, MOR00208 0.01 nM (0.0015 μg/ml)
[44] = Experiment 4, Idelalisib 3 μM, MOR00208 0.1 nM (0.015 μg/ml)
[45] = Experiment 4, Idelalisib 3 μM, MOR00208 10 nM (1.5 μg/ml)
[46] = Experiment 4, Idelalisib 10 μM, MOR00208 0.01 nM (0.0015 μg/ml)
[47] = Experiment 4, Idelalisib 10 μM, MOR00208 0.1 nM (0.015 μg/ml)
[48] = Experiment 4, Idelalisib 10 μM, MOR00208 10 nM (1.5 μg/ml)

Molecule: CC[C@H](Nc1ncnc2nc[nH]c12)c1nc2cccc(F)c2c(=O)n1-c1ccccc1 [Idelalisib]
- effect of the Idelalisib group greater than the control (Experiment 1, Tables 1-3): ~4%
- % dead cells [1]: 6.8%
- % dead cells [2]: 6.8%
- % dead cells [3]: 6.8%
- % dead cells [4]: 10.8%
- % dead cells [5]: 10.8%
- % dead cells [6]: 10.8%
- % dead cells [7]: 11.3%
- % dead cells [8]: 11.3%
- % dead cells [9]: 11.3%
- % dead cells [10]: 11.6%
- % dead cells [11]: 11.6%
- % dead cells [12]: 11.6%
- % dead cells [13]: 20.8%
- % dead cells [14]: 20.8%
- % dead cells [15]: 20.8%
- % dead cells [16]: 20.7%
- % dead cells [17]: 20.7%
- % dead cells [18]: 20.7%
- % dead cells [19]: 14.6%
- % dead cells [20]: 14.6%
- % dead cells [21]: 14.6%
- % dead cells [22]: 14.7%
- % dead cells [23]: 14.7%
- % dead cells [24]: 14.7%
- % dead cells [25]: 17.3%
- % dead cells [26]: 17.3%
- % dead cells [27]: 17.3%
- % dead cells [28]: 18.7%
- % dead cells [29]: 18.7%
- % dead cells [30]: 18.7%
- % dead cells [31]: 14.0%
- % dead cells [32]: 14.0%
- % dead cells [33]: 14.0%
- % dead cells [34]: 11.5%
- % dead cells [35]: 11.5%
- % dead cells [36]: 11.5%
- % dead cells [37]: 15.5%
- % dead cells [38]: 15.5%
- % dead cells [39]: 15.5%
- % dead cells [40]: 15.9%
- % dead cells [41]: 15.9%
- % dead cells [42]: 15.9%
- % dead cells [43]: 13.8%
- % dead cells [44]: 13.8%
- % dead cells [45]: 13.8%
- % dead cells [46]: 12.1%
- % dead cells [47]: 12.1%
- % dead cells [48]: 12.1%
- cytotoxic effects against MEC-1 cells (Idelalisib alone): little to no cyctotoxic effects; also recorded: low cytotoxity activity

B1: MOR00208: anti-CD19 antibody; variable domains in FIG. 1, Fc regions in FIG. 2 (antibody)
heavy: EVQLVESGGGLVKPGGSLKLSCAASGYTFTSYVMHWVRQAPGKGLEWIGYINPYNDGTKYNEKFQGRVTISSDKSISTAYMELSSLRSEDTAMYYCARGTYYYGTRVFDYWGQGTLVTVSSASTKGPSVFPLAPSSKSTSGGTAALGCLVKDYFPEPVTVSWNSGALTSGVHTFPAVLQSSGLYSLSSVVTVPSSSLGTQTYICNVNHKPSNTKVDKKVEPKSCDKTHTCPPCPAPELLGGPDVFLFPPKPKDTLMISRTPEVTCVVVDVSHEDPEVQFNWYVDGVEVHNAKTKPREEQFNSTFRVVSVLTVVHQDWLNGKEYKCKVSNKALPAPEEKTISKTKGQPREPQVYTLPPSREEMTKNQVSLTCLVKGFYPSDIAVEWESNGQPENNYKTTPPMLDSDGSFFLYSKLTVDKSRWQQGNVFSCSVMHEALHNHYTQKSLSLSPGK
light: DIVMTQSPATLSLSPGERATLSCRSSKSLQNVNGNTYLYWFQQKPGQSPQLLIYRMSNLNSGVPDRFSGSGSGTEFTLTISSLEPEDFAVYYCMQHLEYPITFGAGTKLEIKRTVAAPSVFIFPPSDEQLKSGTASVVCLLNNFYPREAKVQWKVDNALQSGNSQESVTEQDSKDSTYSLSSTLTLSKADYEKHKVYACEVTHQGLSSPVTKSFNRGEC
- % dead cells [1]: 40.3%
- % dead cells [2]: 63.1%
- % dead cells [3]: 62.9%
- % dead cells [4]: 40.3%
- % dead cells [5]: 63.1%
- % dead cells [6]: 62.9%
- % dead cells [7]: 40.3%
- % dead cells [8]: 63.1%
- % dead cells [9]: 62.9%
- % dead cells [10]: 40.3%
- % dead cells [11]: 63.1%
- % dead cells [12]: 62.9%
- % dead cells [13]: 52.9%
- % dead cells [14]: 78.9%
- % dead cells [15]: 85.6%
- % dead cells [16]: 52.9%
- % dead cells [17]: 78.9%
- % dead cells [18]: 85.6%
- % dead cells [19]: 52.9%
- % dead cells [20]: 78.9%
- % dead cells [21]: 85.6%
- % dead cells [22]: 52.9%
- % dead cells [23]: 78.9%
- % dead cells [24]: 85.6%
- % dead cells [25]: 43.5%
- % dead cells [26]: 59.5%
- % dead cells [27]: 62.0%
- % dead cells [28]: 43.5%
- % dead cells [29]: 59.5%
- % dead cells [30]: 62.0%
- % dead cells [31]: 43.5%
- % dead cells [32]: 59.5%
- % dead cells [33]: 62.0%
- % dead cells [34]: 43.5%
- % dead cells [35]: 59.5%
- % dead cells [36]: 62.0%
- % dead cells [37]: 56.3%
- % dead cells [38]: 73.3%
- % dead cells [39]: 74.6%
- % dead cells [40]: 56.3%
- % dead cells [41]: 73.3%
- % dead cells [42]: 74.6%
- % dead cells [43]: 56.3%
- % dead cells [44]: 73.3%
- % dead cells [45]: 74.6%
- % dead cells [46]: 56.3%
- % dead cells [47]: 73.3%
- % dead cells [48]: 74.6%

— patent publication US12194095B2, “Combinations and uses thereof” (Incyte Corporation, priority 2015, dated 2025)
